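How tested: cells in 96-well plates exposed to compound for 48 hours at five concentrations. Definition used: TGI = concentration required for complete inhibition of growth.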
Key:
Test in all cases: inhibition of tumour cell growth, NCI panel, 48 h
786-0 renal = tested on: 786-0 renal
A498 renal = tested on: A498 renal
A549 NSCLC = tested on: A549 NSCLC
ACHN renal = tested on: ACHN renal
CAKI-1 renal = tested on: CAKI-1 renal
CCRF-CEM leukemia = tested on: CCRF-CEM leukemia
COLO 205 colon = tested on: COLO 205 colon
DLD-1 colon = tested on: DLD-1 colon
DMS 114 small cell lung = tested on: DMS 114 small cell lung
DMS 273 small cell lung = tested on: DMS 273 small cell lung
EKVX NSCLC = tested on: EKVX NSCLC
HCC-2998 colon = tested on: HCC-2998 colon
HCT-15 colon = tested on: HCT-15 colon
HL-60(TB) leukemia = tested on: HL-60(TB) leukemia
HOP-18 NSCLC = tested on: HOP-18 NSCLC
HOP-62 NSCLC = tested on: HOP-62 NSCLC
HT29 colon = tested on: HT29 colon
IGROV1 ovarian = tested on: IGROV1 ovarian
K-562 leukemia = tested on: K-562 leukemia
KM12 colon = tested on: KM12 colon
KM20L2 colon = tested on: KM20L2 colon
LOX IMVI melanoma = tested on: LOX IMVI melanoma
LXFL 529 NSCLC = tested on: LXFL 529 NSCLC
M14 melanoma = tested on: M14 melanoma
M19-MEL melanoma = tested on: M19-MEL melanoma
MALME-3M melanoma = tested on: MALME-3M melanoma
MOLT-4 leukemia = tested on: MOLT-4 leukemia
NCI-H226 lung = tested on: NCI-H226 lung
NCI-H23 lung = tested on: NCI-H23 lung
NCI-H460 lung = tested on: NCI-H460 lung
NCI-H522 lung = tested on: NCI-H522 lung
OVCAR-3 ovarian = tested on: OVCAR-3 ovarian
OVCAR-4 ovarian = tested on: OVCAR-4 ovarian
OVCAR-5 ovarian = tested on: OVCAR-5 ovarian
OVCAR-8 ovarian = tested on: OVCAR-8 ovarian
RPMI-8226 leukemia = tested on: RPMI-8226 leukemia
RXF 393 renal = tested on: RXF 393 renal
SF-268 CNS = tested on: SF-268 CNS
SF-295 CNS = tested on: SF-295 CNS
SF-539 CNS = tested on: SF-539 CNS
SK-MEL-2 melanoma = tested on: SK-MEL-2 melanoma
SK-MEL-28 melanoma = tested on: SK-MEL-28 melanoma
SK-MEL-5 melanoma = tested on: SK-MEL-5 melanoma
SK-OV-3 ovarian = tested on: SK-OV-3 ovarian
SN12C renal = tested on: SN12C renal
SNB-19 CNS = tested on: SNB-19 CNS
SNB-75 CNS = tested on: SNB-75 CNS
SW-620 colon = tested on: SW-620 colon
TK-10 renal = tested on: TK-10 renal
UACC-257 melanoma = tested on: UACC-257 melanoma
UACC-62 melanoma = tested on: UACC-62 melanoma
UO-31 renal = tested on: UO-31 renal
XF 498 CNS = tested on: XF 498 CNS
HCT-116 colon = tested on: HCT-116 colon
HOP-92 NSCLC = tested on: HOP-92 NSCLC
SNB-78 CNS = tested on: SNB-78 CNS
SR leukemia = tested on: SR leukemia
U251 CNS = tested on: U251 CNS

COc1ccc(NC(=O)CC/C(CC(=O)c2ccco2)=N/NC(=O)C(N)=O)cc1
TGI (786-0 renal): > 100 µM
TGI (A498 renal): > 100 µM
TGI (A549 NSCLC): > 100 µM
TGI (ACHN renal): > 100 µM
TGI (CAKI-1 renal): > 100 µM
TGI (CCRF-CEM leukemia): > 100 µM
TGI (COLO 205 colon): > 100 µM
TGI (DLD-1 colon): > 100 µM
TGI (DMS 114 small cell lung): > 100 µM
TGI (DMS 273 small cell lung): > 100 µM
TGI (EKVX NSCLC): > 100 µM
TGI (HCC-2998 colon): > 100 µM
TGI (HCT-15 colon): > 100 µM
TGI (HL-60(TB) leukemia): > 100 µM
TGI (HOP-18 NSCLC): > 100 µM
TGI (HOP-62 NSCLC): > 100 µM
TGI (HT29 colon): > 100 µM
TGI (IGROV1 ovarian): > 100 µM
TGI (K-562 leukemia): > 100 µM
TGI (KM12 colon): > 100 µM
TGI (KM20L2 colon): > 100 µM
TGI (LOX IMVI melanoma): > 100 µM
TGI (LXFL 529 NSCLC): > 100 µM
TGI (M14 melanoma): > 100 µM
TGI (M19-MEL melanoma): > 100 µM
TGI (MALME-3M melanoma): > 100 µM
TGI (MOLT-4 leukemia): > 100 µM
TGI (NCI-H226 lung): > 100 µM
TGI (NCI-H23 lung): > 100 µM
TGI (NCI-H460 lung): > 100 µM
TGI (NCI-H522 lung): > 100 µM
TGI (OVCAR-3 ovarian): > 100 µM
TGI (OVCAR-4 ovarian): > 100 µM
TGI (OVCAR-5 ovarian): > 100 µM
TGI (OVCAR-8 ovarian): > 100 µM
TGI (RPMI-8226 leukemia): > 100 µM
TGI (RXF 393 renal): > 100 µM
TGI (SF-268 CNS): > 100 µM
TGI (SF-295 CNS): > 100 µM
TGI (SF-539 CNS): > 100 µM
TGI (SK-MEL-2 melanoma): > 100 µM
TGI (SK-MEL-28 melanoma): > 100 µM
TGI (SK-MEL-5 melanoma): > 100 µM
TGI (SK-OV-3 ovarian): > 100 µM
TGI (SN12C renal): > 100 µM
TGI (SNB-19 CNS): > 100 µM
TGI (SNB-75 CNS): > 100 µM
TGI (SW-620 colon): > 100 µM
TGI (TK-10 renal): > 100 µM
TGI (UACC-257 melanoma): > 100 µM
TGI (UACC-62 melanoma): > 100 µM
TGI (UO-31 renal): > 100 µM
TGI (XF 498 CNS): > 100 µM

C=C1C(=O)OC2/C=C(\C(=O)O)CC/C=C(\C)CC(OC(=O)/C=C(\C)CC)C12 (stereo not given)
TGI (A498 renal): 32 µM
TGI (A549 NSCLC): 31.6 µM
TGI (ACHN renal): 46.2 µM
TGI (CAKI-1 renal): 54.1 µM
TGI (CCRF-CEM leukemia): > 100 µM
TGI (COLO 205 colon): 31.3 µM
TGI (DLD-1 colon): 43.6 µM
TGI (DMS 114 small cell lung): 30.2 µM
TGI (DMS 273 small cell lung): 34 µM
TGI (EKVX NSCLC): 59.3 µM
TGI (HCC-2998 colon): 33.8 µM
TGI (HCT-116 colon): 25.6 µM
TGI (HCT-15 colon): 28.6 µM
TGI (HL-60(TB) leukemia): > 100 µM
TGI (HOP-18 NSCLC): 39.9 µM
TGI (HOP-62 NSCLC): 34.5 µM
TGI (HOP-92 NSCLC): 36.8 µM
TGI (HT29 colon): 30.1 µM
TGI (IGROV1 ovarian): 40.9 µM
TGI (K-562 leukemia): > 100 µM
TGI (KM12 colon): 27.9 µM
TGI (KM20L2 colon): 39.5 µM
TGI (LOX IMVI melanoma): 29.3 µM
TGI (LXFL 529 NSCLC): 31.6 µM
TGI (M14 melanoma): 31.2 µM
TGI (M19-MEL melanoma): 29.1 µM
TGI (MALME-3M melanoma): 32.7 µM
TGI (MOLT-4 leukemia): > 100 µM
TGI (NCI-H226 lung): 32.9 µM
TGI (NCI-H23 lung): 33.2 µM
TGI (NCI-H460 lung): 30.7 µM
TGI (NCI-H522 lung): 32.8 µM
TGI (OVCAR-3 ovarian): 30.8 µM
TGI (OVCAR-4 ovarian): 45.1 µM
TGI (OVCAR-5 ovarian): 26.6 µM
TGI (OVCAR-8 ovarian): 33.9 µM
TGI (RPMI-8226 leukemia): > 100 µM
TGI (RXF 393 renal): 27.5 µM
TGI (SF-268 CNS): 30.6 µM
TGI (SF-295 CNS): 31.3 µM
TGI (SF-539 CNS): 29.9 µM
TGI (SK-MEL-2 melanoma): 28.7 µM
TGI (SK-MEL-28 melanoma): 34.2 µM
TGI (SK-MEL-5 melanoma): 32.9 µM
TGI (SK-OV-3 ovarian): 37.9 µM
TGI (SN12C renal): 31 µM
TGI (SNB-19 CNS): 33.5 µM
TGI (SNB-75 CNS): 47.6 µM
TGI (SNB-78 CNS): 61 µM
TGI (SR leukemia): > 100 µM
TGI (SW-620 colon): 31.3 µM
TGI (TK-10 renal): > 100 µM
TGI (U251 CNS): 30.7 µM
TGI (UACC-257 melanoma): 39.9 µM
TGI (UACC-62 melanoma): 28.5 µM
TGI (UO-31 renal): 41.9 µM
TGI (XF 498 CNS): 32.5 µM
